Test results: patent publication US20160183527A1, “FUNGICIDAL COMPOSITIONS” (Dow AgroSciences LLC, priority 2014, published 2016)

What was measured:
Type in all cases: physicochemical
[1] = Approximate (relative) solubility of active ingredients in organic solvents at ambient temperature; conditions: 0.2 g of Compound A mixed with 1.38 g of cyclohexanone
Method: The approximate solubility of Compound A was determined by mixing a known mass of the active ingredient with an increasing mass of each solvent at ambient temperature. […] The solubility of Compound A in the solvents used in this screening procedure was generally classified within the following concentration ranges: […]

[2] = Solubility of Compound A and prothioconazole in benzyl acetate/AMD810 blends at 10° C. (HPLC); conditions: both actives saturated
Method: A study of the Compound A and prothioconazole solubility in blends of benzyl acetate/AMD810 was conducted. To each solvent blend both actives were added until each was saturated and the resulting mixtures were then stored at 10° C. until equilibrium was obtained. Aliquots of the supernatant layer were taken from each sample, filtered (0.45 μm mesh) and analyzed by HPLC to determine the solution concentration of each active in the blends.

[3] = Accelerated storage stability, 54° C. for 2 weeks (HPLC); conditions: 2 weeks at 54° C.
Method: Sample 1 was stored at 54° C. for 2 weeks in a closed container.
Sample 6 was stored at 54° C. for 2 weeks in a closed container.
Sample 7 was stored at 54° C. for 2 weeks in a closed container.

## COc1ccnc(C(=O)N[C@H]2COC(=O)[C@H](Cc3ccccc3)[C@@H](OC(=O)C(C)C)[C@H](C)OC2=O)c1OCOC(=O)C(C)C [Compound A, propanoic acid, 2-methyl-, [[4-methoxy-2-[[[(3S,7R,8R,9S)-9-methyl-8-(2-methyl-1-oxopropoxy)-2,6-dioxo-7-(phenylmethyl)-1,5-dioxonan-3-yl]amino]carbonyl]-3-pyridinyl]oxy]methyl ester]
[1]
  Compound A content of clear solution in cyclohexanone: 12.6 % w/w
[2]; benzyl acetate 0 wt % in benzyl acetate/AMD810 blend
  Compound A Solubility at 10° C.: 3.3 % w/w
[2]; benzyl acetate 20 wt % in benzyl acetate/AMD810 blend
  Compound A Solubility at 10° C.: 4.3 % w/w
[2]; benzyl acetate 40 wt % in benzyl acetate/AMD810 blend
  Compound A Solubility at 10° C.: 6.5 % w/w
[2]; benzyl acetate 60 wt % in benzyl acetate/AMD810 blend
  Compound A Solubility at 10° C.: 11.0 % w/w
[2]; benzyl acetate 80 wt % in benzyl acetate/AMD810 blend
  Compound A Solubility at 10° C.: 12.0 % w/w
[3]; composition wt %: Compound A 3.4, AMD 810 96.0, third solvent none
  Compound A after Storage (% retention): 49^ % retention
[3]; composition wt %: Compound A 4.9, benzyl acetate 94.1, third solvent none
  Compound A after Storage (% retention): 85^ % retention
[3]; composition wt %: Compound A 12.0, cyclohexanone 85.7
  Compound A after Storage (% retention): 96^ % retention
[3]; wt %: Compound A 4.9, pyraclostrobin 6.3, benzyl acetate 41.2, AMD 810 22.2, cyclohexanone 9.8
  Compound A after Storage (% retention): 98^ % retention
[3]; wt %: Compound A 5.0, pyraclostrobin 6.4, benzyl acetate 40.9, AMD 810 22.0, 2-ethyl hexanol 10.0
  Compound A after Storage (% retention): 95^ % retention
[3]; wt %: Compound A 7.7, pyraclostrobin 9.8, benzyl acetate 37.1, AMD 810 20.0, cyclohexanone 9.6
  Compound A after Storage (% retention): 97^ % retention
[3]; wt %: Compound A 7.8, pyraclostrobin 9.9, benzyl acetate 36.7, AMD 810 19.8, 2-ethyl hexanol 9.7
  Compound A after Storage (% retention): 97^ % retention
